Source: patent publication US8735417B2, “Aminopyrimidines as Syk inhibitors” (Merck Sharp & Dohme Corp., priority 2009, dated 2014)

Target: T1, recombinant human GST-SYK (Homo sapiens, UniProt P43405)
T1 construct: purchased Carna Biosciences 08-176
Assay: Homogeneous Time-Resolved Fluorescence (HTRF) assay for the recombinant human SYK enzyme
Type: biochemical
Settings: recombinant human GST-SYK 5 pM, ATP 25 μM, 10-dose titration; read-out: rhSYK Activity (IC50)
Procedure, shortened: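 GST-hSYK (5 pM) preincubated 10 min at room temperature with inhibitor (0.1% DMSO) in Tris pH 7.5 buffer; reaction started with 250 nM biotinylated peptide, 5 mM Mg and 25 μM ATP, 45 min. EDTA quench with Eu-anti-phosphotyrosine antibody and SA-APC; HTRF read after 30 min.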

SMILES	IC50 [µM]
Cc1cc(Nc2nccc(O[C@@H]3CCNC3)n2)cc(-c2cnc(N3CCCNC(=O)C3)s2)c1 [Example 212, 4-{5-[3-methyl-5-({4-[(3R)-pyrrolidin-3-yloxy]pyrimidin-2-yl}amino)phenyl]-1,3-thiazol-2-yl}-1,4-diazepan-2-one]	≤ 0.1
C=Cc1ccnc(Nc2cc(C)cc(-c3cnc(N4CCCNC(=O)C4)s3)c2)n1 [Example 199, 4-(5-{3-[(4-ethenylpyrimidin-2-yl)amino]-5-methylphenyl}-1,3-thiazol-2-yl)-1,4-diazepan-2-one]	≤ 0.1
NC(=O)C1CCN(c2ncc(-c3cccc(Nc4nccc(C(F)(F)F)n4)c3)s2)CC1 [Example 191, 1-[5-(3-{[4-(trifluoromethyl)pyrimidin-2-yl]amino}phenyl)-1,3-thiazol-2-yl]piperidine-4-carboxamide]	≤ 0.1
CCOCCNc1ncc(-c2cccc(Nc3nccc(C(F)(F)F)n3)c2)s1 [Example 34]	≤ 0.1
FC1CCN(c2ncc(-c3cccc(Nc4nccc(C(F)(F)F)n4)c3)s2)CC1 [Example 140]	0.1 to 1
OCCC1CCN(c2ncc(-c3cccc(Nc4nccc(C(F)(F)F)n4)c3)s2)CC1 [Example 141]	≤ 0.1
Cc1cc(Nc2nccc(C(F)(F)F)n2)cc(-c2cnc(N(C)CCc3c[nH]c4ccccc34)s2)c1 [Example 90]	0.1 to 1
Cc1cc(Nc2nccc(C(F)(F)F)n2)cc(-c2cnc(NCc3ccncc3)s2)c1 [Example 86]	≤ 0.1
CC(=O)Nc1cc(Nc2nccc(C(F)(F)F)n2)cc(-c2cnc(N3CCCNC(=O)C3)s2)c1 [Example 184, N-(3-[2-(3-oxo-1,4-diazepan-1-yl)-1,3-thiazol-5-yl]-5-{[4-(trifluoromethyl)pyrimidin-2-yl]amino}phenyl)acetamide]	≤ 0.1
O=C1CN(c2ncc(-c3cccc(Nc4nccc(C(F)(F)F)n4)c3)s2)CCCN1 [Example 166]	≤ 0.1
Nc1cc(Nc2nccc(C(F)(F)F)n2)cc(-c2cnc(NCCO)s2)c1 [Example 190]	≤ 0.1
OCC1C2CN(c3ncc(-c4cccc(Nc5nccc(C(F)(F)F)n5)c4)s3)CC12 (stereo not drawn) [Example 171]	≤ 0.1
OC1(c2ccccc2)CCN(c2ncc(-c3cccc(Nc4nccc(C(F)(F)F)n4)c3)s2)C1 (stereo not drawn) [Example 159]	0.1 to 1
CCC(CO)Nc1ncc(-c2cccc(Nc3nccc(C(F)(F)F)n3)c2)s1 (stereo not drawn) [Example 10]	≤ 0.1
FC(F)(F)c1ccnc(Nc2cccc(-c3cnc(NCc4cccc(-n5cccn5)c4)s3)c2)n1 [Example 76]	≤ 0.1
Cc1cc(Nc2nccc(C(F)(F)F)n2)cc(-c2cnc(NC[C@H]3CC[C@@H](N)CC3)s2)c1 [Example 98]	≤ 0.1
OC1CCN(c2ncc(-c3cccc(Nc4nccc(C(F)(F)F)n4)c3)s2)CC1 [Example 129]	≤ 0.1

The remaining lines, values ahead:

IC50 [µM]	SMILES
0.1 to 1	Oc1ccc(CCNc2ncc(-c3cccc(Nc4nccc(C(F)(F)F)n4)c3)s2)cc1 [Example 46]
≤ 0.1	COCC(O)CNc1ncc(-c2cccc(Nc3nccc(C(F)(F)F)n3)c2)s1 (stereo not drawn) [Example 50]
≤ 0.1	Nc1ncc(-c2cccc(Nc3nccc(C(F)(F)F)n3)c2)s1 [Example 181, N-[3-(2-amino-1,3-thiazol-5-yl)phenyl]-4-(trifluoromethyl)pyrimidin-2-amine]
≤ 0.1	CC(C)(CO)Nc1ncc(-c2cccc(Nc3nccc(C(F)(F)F)n3)c2)s1 [Example 23]
0.1 to 1	Fc1c(CNc2ncc(-c3cccc(Nc4nccc(C(F)(F)F)n4)c3)s2)cccc1C(F)(F)F [Example 64]
≤ 0.1	Cc1cc(Nc2nccc(C(F)(F)F)n2)cc(-c2cnc(N3CCOC3=O)s2)c1 [Example 180]
≤ 0.1	NC1CCN(c2ncc(-c3cccc(Nc4nccc(C(F)(F)F)n4)c3)s2)CC1 [Example 143]
≤ 0.1	CC(=O)OCC(=O)Nc1ncc(-c2cccc(Nc3nccc(C(F)(F)F)n3)c2)s1 [Example 182, 2-oxo-2-{[5-(3-{[4-(trifluoromethyl)pyrimidin-2-yl]amino}phenyl)-1,3-thiazol-2-yl]amino}ethyl acetate]
≤ 0.1	OC(CNc1ncc(-c2cccc(Nc3nccc(C(F)(F)F)n3)c2)s1)C(F)F (stereo not drawn) [Example 13]
≤ 0.1	Cc1cc(Nc2ncc(C3CC3)cn2)cc(-c2cnc(N3CCCNC(=O)C3)s2)c1 [Example 202]
≤ 0.1	CNc1ncc(-c2cccc(Nc3nccc(C(F)(F)F)n3)c2)s1 [Example 21]
≤ 0.1	Cc1cc(Nc2nccc(C(F)(F)F)n2)cc(-c2cnc(NCCc3ncn[nH]3)s2)c1 [Example 106]
≤ 0.1	CCCCSc1ccnc(Nc2cc(C)cc(-c3cnc(N4CCCNC(=O)C4)s3)c2)n1 [Example 217, 4-[5-(3-{[4-(butylsulfanyl)pyrimidin-2-yl]amino}-5-methyphenyl)-1,3-thiazol-2-yl]-1,4-diazepan-2-one]
≤ 0.1	Cc1cc(Nc2nccc(C(F)(F)F)n2)cc(-c2cnc(NCc3cccnc3)s2)c1 [Example 85]
≤ 0.1	Cc1cc(Nc2nccc(C(F)(F)F)n2)cc(-c2cnc(N(C)Cc3cnn(C)c3)s2)c1 [Example 101]
≤ 0.1	CC(C)(CO)CNc1ncc(-c2cccc(Nc3nccc(C(F)(F)F)n3)c2)s1 [Example 16]
≤ 0.1	CN(Cc1ccccn1)c1ncc(-c2cccc(Nc3nccc(C(F)(F)F)n3)c2)s1 [Example 33]
≤ 0.1	CN(CCO)c1ncc(-c2cccc(Nc3nccc(C(F)(F)F)n3)c2)s1 [Example 4]
≤ 0.1	Cc1cc(Nc2nccc(C(F)(F)F)n2)cc(-c2cnc(N3CCC4CN(C)CC4C3)s2)c1 (stereo not drawn) [Example 153]

Test system: allergic rhinitis
Assay: not given
Settings: phase II clinical trial; cited from earlier work

SMILES	efficacy versus placebo
Oc1cccc(Nc2ncc(F)c(Nc3cccc(O)c3)n2)c1 [Example R112]	lack of efficacy versus placebo

Test system: allergic rhinitis
Assay: not given
Settings: dosed intranasally, phase I/II study; cited from earlier work

SMILES	clinical safety	decrease in PGD2
Oc1cccc(Nc2ncc(F)c(Nc3cccc(O)c3)n2)c1 [Example R112]	safe across a range of indicators	statistically significant decrease
